# “And” between values parts separate entries of the source, which are not always exact repeats. Identical values can stand only once.
# What was measured:
# [1] = Plasma exposure (AUC) of LD and CD after SC infusion, oral IR tablet, and SC + oral coadministration of LD/CD; format: in vivo
# Excerpt: A test was run in order to assess the plasma exposure of levodopa (LD) following the coadministration of LD and carbidopa (CD) in both subcutaneous (SC) and oral administrations. Accordingly, results obtained from a combined SC+oral administration were compared to results obtained from SC administration alone and from oral administration alone. An additive plasma exposure and PK profile was expected, i.e., it was expected that the SC+oral coadministration would provide results equal to the additive results of the SC and oral administrations, when each was administered separately.
# 16 healthy subjects (18-50 years) were treated in a crossover manner, i.e., sequentially, with a washout period of 6 days between the following two treatments: • Treatment A: A total dose of 180/22.5 mg LD/CD (formulation A) was administered by SC infusion over the course of 8 hours, at a steady infusion rate. • Treatment B: An immediate release (IR) tablet of 100/25 mg LD/CD was administered orally at time 0 h.
# Following a 32 hour washout period, the same 16 healthy subjects were administered with LC/CD both orally and subcutaneously according to the following treatment: • Treatment C: A dose of 153.6/19.2 LD/CD (formulation A) was administered by SC infusion over the course of 8 hours, at a steady infusion rate, combined with a single co-administration of an oral IR LD/CD 100/25 mg tablet, 4 hours after the initiation of the infusion. Total LD/CD dose: 253.6/44.2 mg.
# The normalized AUC0-8 of LD and CD of Treatment C, resulting from the combined SC and oral treatment, as described above, was calculated and compared to the sum of the normalized LD and CD AUCs obtained from Treatment A (AUC0-8 resulting from 8 h SC infusion) and Treatment B (AUC0-4 resulting from one IR oral tablet).
# [2] = Description: The objective of this study was to determine the pharmacokinetics (PK) of levodopa (LD) in domestic pigs following continuous subcutaneous (SC) infusion of a levodopa prodrug, exemplified using LD-Tyr, administered concomitantly with oral Levodopa.
# Table 6 provides the LD-Tyr formulation tested in this study: […]
# The study consisted of 3 dosing sessions in which 5 female pigs (Swine/Landrace×large White, ˜40-50 kg each) were treated with the LD-Tyr solution of Table 6 and/or Sinemet JR oral tablets (CD/LD 25/100 mg tablet) in a cross-over design with up to 4-day washout period between dosing sessions, as detailed in the following tables:
# As presented in Tables 7 and 8 above, the study included the following three test groups: • G1—received only SC LD-Tyr (600 mg total daily dose); • G2—received only oral LD (300 mg total daily dose); and • G3—received both SC LD-Tyr (600 mg total daily dose) and oral LD (200 mg total daily dose).
# Blood samples for the determination of LD-Tyr (in groups 1 and 3), as well as LD and CD plasma levels (in all groups) were collected from the pigs at the following timepoints: • 0 (pre-dose), 30 min, 1 h, 2 h, 3 h, 4 h, 4.5 h, 5 h, 6 h, 7 h, 8 h, 8.5 h, 9 h, 10 h, 11 h, 13 h, 15 h 18 h following treatment initiation. Tablets were administered before blood collection (time 0, 4 and 8 h).
# Plasma samples were analyzed for concentration of LD-Tyr (groups 1 and 3), as well as LD and CD (for all groups) using a qualified LC-MS/MS analytical method.
# PK parameters (at least Cmax, tmax, t1/2, AUC) for LD-Tyr, LD and CD were calculated by noncompartmental methods using appropriate software (e.g. Phoenix® WinNonlin®). Individual and mean was calculated for quantitative parameters.
# The LD exposure obtained from the SC infusion is considered to be the baseline.
# [3] = geomean of group, Treatment A SC 8 h, normalized × 0.853
# [4] = geomean of group, oral IR tablet 100/25 mg LD/CD
structure (smiles),measurement,setting,value
"C[C@@](Cc1ccc(O)c(O)c1)(NN)C(=O)O [CD, carbidopa]","CD: 4. Treatment C AUC (0-8) [Observed], Geomean Group","[1]; geomean of group, SC + oral",1051
same,"CD: 1. Treatment A AUC (0-8) × 0.853, Geomean Group",[1]; [3],900
same,"CD: 2. Treatment B AUC (0-4), Geomean Group",[1]; [4],309
same,"CD: 3. Combined 1 + 2 [Estimated], Geomean Group","[1]; human, in vivo",1209
same,"CD: Observed (C) vs. Additive Ratio, Geomean Group (mean ratio)","[1]; human, in vivo",0.869
same,"CD: Observed (C) vs. Additive Ratio, Geomean Individual","[1]; human, in vivo",0.866
same,CD: 4. Treatment C AUC (0-8) [Observed],"[1]; individual subject (ID), SC 153.6/19.2 LD/CD over 8 h + oral IR LD/CD 100/25 mg tablet at 4 h",1086
same,CD: 1. Treatment A AUC (0-8) × 0.853,"[1]; individual subject (ID), Treatment A: 180/22.5 mg LD/CD formulation A, SC infusion over 8 h, AUC × 0.853",955 and 988 and 925
same,CD: 2. Treatment B AUC (0-4),"[1]; individual subject (ID), oral IR tablet 100/25 mg LD/CD at 0 h",318
"N[C@@H](Cc1ccc(O)c(O)c1)C(=O)O [LD, L-3,4-dihydroxyphenylalanine]","LD: 4. Treatment C AUC (0-8) [Observed], Geomean Group","[1]; geomean of group, SC 153.6/19.2 LD/CD over 8 h + oral 100/25 mg tablet at 4 h",4817
same,"LD: 1. Treatment A AUC (0-8) × 0.853, Geomean Group",[1]; [3],2412
same,"LD: 2. Treatment B AUC (0-4), Geomean Group",[1]; [4],1458
same,"LD: 3. Combined 1 + 2 [Estimated], Geomean Group","[1]; geomean of group, sum A + B",3870
same,"LD: Observed (C) vs. Additive Ratio, Geomean Individual",[1]; geomean of individual ratios,1.240
same,"LD: Observed (C) vs. Additive Ratio, Geomean Group (mean ratio)","[1]; group geomean, Treatment C vs. A+B",1.245
same,LD: 1. Treatment A AUC (0-8) × 0.853,"[1]; individual subject (ID), Treatment A: 180/22.5 mg LD/CD formulation A, SC infusion over 8 h, AUC × 0.853 to equal SC dose of Treatment C",2236 and 2266 and 2218
same,LD: 4. Treatment C AUC (0-8) [Observed],"[1]; individual subject (ID), Treatment C: 153.6/19.2 LD/CD formulation A SC over 8 h + oral IR LD/CD 100/25 mg tablet at 4 h",6325 and 5031 and 5059 and 4610 and 3961
same,LD: 3. Combined 1 + 2 [Estimated],"[1]; individual subject (ID), sum of normalized Treatment A AUC and Treatment B AUC",3087
same,"Synergism ratio, Mean",[2]; animal 115 excluded,1.57
same,"Synergism ratio, Median",[2]; animal 115 excluded,1.49
same,Synergism ratio (actual / predicted LD AUC of oral add-ons),[2]; individual pig,above 1
same,"Increase of LD plasma exposure by oral add-ons, on top of LD exposure from SC administration alone, versus predicted (average)","[2]; pigs, SC LD-Tyr/CD + oral LD/CD",over 50%
